In brackets after ≈: the same amount, converted by molar mass.
How the values were obtained:
FI7847 [nisA-(fs)] = test: Induction by nisin / nisin variants as inducing agent; format: cell-based, L. lactis; set-up: Induction: unit not given here; conditions: for Induction: strain FI7847
Protocol: A particularly preferred embodiment of the third aspect of the invention is wherein the cells are cultured in the presence of nisA nisin or a variant nisin which can induce nisin expression. […] By adding sub-inhibitory concentrations of nisin to the growth medium, during fermentation, higher levels of the variant nisin are produced. Any variants that are less efficient as inducing agents benefit from the inclusion of nisin in the growth medium (ie a nisin induction step in the purification procedure). The amount of induction varies depending on the initial induction capacity of any particular variant (with I30W nisin A production more than doubled as a result of induction). Induction may be routinely included in the method as a means of maximising production levels. Any concerns about contamination with the wild type molecule are minimal as the nisin concentration required for induction is negligible compared to the amount of nisin variant being purified. Conveniently, the nisA nisin is a minimum amount that provides maximal induction of nisin production. This amount can be determined empirically by a person skilled in the art. Suitable nisA nisin concentrations for induction in this embodiment are from 1 nM to 500 nM, preferably 10 nM to 250 nM, more preferably 50 nM to 150 nM, most preferably 100 nM.
In some circumstances it is desirable to add nisA nisin as an inducer.

[1] = system: Lactobacillus helveticus CH-1; test: Plate diffusion bioassay of cell-free extracts / culture supernatants; format: cell-based; conditions: for Activity (% of wt): antimicrobial activity in culture supernatants of gene-replaced strains, plate diffusion bioassays; for nisin activity (% of wild type), gene replacement: functional nisA gene incorporated in the chromosome of FI7990 in place of nisA deletion
Protocol: 150 μl samples of cell free extracts from strains: 4, FI5876; 5, FI7990; 6, FI8070; 7, FI8198; 8, FI8199 were loaded into wells bored in MRS agar seeded with the indicator strains Lactobacillus helveticus CH-1. Plates were incubated overnight at 42° C. Standards included on the assay plate are: 1,50; 2,100; 3,200; 9,300; 10,400 U/ml.
Nisin activity in Lactococcal strains was assayed by both deferred and direct means. Plate diffusion bioassays were performed as previously described (Dodd et al (1992) Appl. Environ. Microbiol. 58, 3683-3693. Colonies growing on the surface of a GM17 plate were directly assayed by inverting over chloroform for 12 minutes and overlaying with agar seeded with the nisin sensitive L. lactis strain MG1614. Plates were incubated overnight and zone sizes around colonies compared with those of controls. Nisin immunity was determined by streaking cultures on a series of GM17 agar plates containing an increasing concentration of nisin and assessing the degree of growth at the different nisin levels. Control cultures (FI5876, positive) and MG1614 (negative) were included on each plate.
This corresponds to an increase of approximately 50% of nisin A levels, under the conditions used here (Table 1). This higher level of production was not found in the extracts of FI8199, producing the double mutant nisin A/Dha5A,Dha33A. […] In all cases the yield for a particular nisin variant was higher when using this gene replacement strategy than when the equivalent plasmid-encoded gene was employed in a plasmid complementation system (Table 3, Dodd et al (1992) (1993) supra).

[2] = system: sensitive L. Lactis strain MG1614; test: Minimum inhibitory concentration (MIC); format: cell-based; conditions: Table 5
[3] = system: sensitive indicator strains; conditions: work described in WO 93/20213; cited from earlier work
[4] = system: Lactobacillus helveticus CH-1; conditions: plate diffusion bioassay; plasmid-encoded nisA gene complementing nisA deficiency in host strain FI7332; cited from earlier work

Molecule	Induction (FI7847 [nisA-(fs)]; inducing agent at 100 ng ml^−1)	Activity (% of wt) [1]	MIC [2]	other results
C=C(NC(=O)[C@@H](NC(=O)[C@H](Cc1c[nH]cn1)NC(=O)[C@@H](NC(=O)[C@H](CO)NC(=O)[C@@H]1CS[C@@H](C)[C@H]2NC(=O)[C@H](C)NC(=O)[C@H](NC(=O)[C@H](CCCCN)NC(=O)[C@H](CCSC)NC(=O)[C@H](CC(N)=O)NC(=O)[C@@H]3CS[C@@H](C)[C@@H](NC(=O)[C@H](CCCCN)NC(=O)[C@@H]4CS[C@@H](C)[C@@H](NC(=O)[C@@H]5CSC[C@@H](NC(=O)/C(=C/C)NC(=O)[C@@H](N)[C@@H](C)CC)C(=O)N[C@@H]([C@@H](C)CC)C(=O)NC(=C)C(=O)N[C@@H](CC(C)C)C(=O)N5)C(=O)N5CCC[C@H]5C(=O)NCC(=O)N4)C(=O)NCC(=O)N[C@@H](C)C(=O)N[C@@H](CC(C)C)C(=O)N[C@@H](CCSC)C(=O)NCC(=O)N3)[C@H](C)SC[C@H](NC2=O)C(=O)N[C@@H](CCCCN)C(=O)N1)[C@@H](C)CC)C(C)C)C(=O)N[C@@H](CCCCN)C(=O)O [H27K]	86	100 % of wt	130 µg/mL (≈ 38.9 µM)	–
C=C(NC(=O)[C@@H](NC(=O)[C@H](Cc1c[nH]cn1)NC(=O)[C@H](Cc1c[nH]c2ccccc12)NC(=O)[C@H](CO)NC(=O)[C@@H]1CS[C@@H](C)[C@H]2NC(=O)[C@H](C)NC(=O)[C@H](NC(=O)[C@H](CCCCN)NC(=O)[C@H](CCSC)NC(=O)[C@H](CC(N)=O)NC(=O)[C@@H]3CS[C@@H](C)[C@@H](NC(=O)[C@H](CCCCN)NC(=O)[C@@H]4CS[C@@H](C)[C@@H](NC(=O)[C@@H]5CSC[C@@H](NC(=O)/C(=C/C)NC(=O)[C@@H](N)[C@@H](C)CC)C(=O)N[C@@H]([C@@H](C)CC)C(=O)NC(=C)C(=O)N[C@@H](CC(C)C)C(=O)N5)C(=O)N5CCC[C@H]5C(=O)NCC(=O)N4)C(=O)NCC(=O)N[C@@H](C)C(=O)N[C@@H](CC(C)C)C(=O)N[C@@H](CCSC)C(=O)NCC(=O)N3)[C@H](C)SC[C@H](NC2=O)C(=O)N[C@@H](Cc2c[nH]cn2)C(=O)N1)C(C)C)C(=O)N[C@@H](CCCCN)C(=O)O [I30W]	41	<1 % of wt	160 µg/mL (≈ 46.7 µM)	function as inducer of its own biosynthesis (FI7847 [nisA-(fs)]): does not function well as an inducer of its own biosynthesis
C=C(NC(=O)[C@@H](NC(=O)[C@H](Cc1c[nH]cn1)NC(=O)[C@@H](NC(=O)[C@H](CO)NC(=O)[C@@H]1CS[C@@H](C)[C@H]2NC(=O)[C@H](C)NC(=O)[C@H](NC(=O)[C@H](CCCCN)NC(=O)[C@H](CCSC)NC(=O)[C@H](CC(N)=O)NC(=O)[C@@H]3CS[C@@H](C)[C@@H](NC(=O)[C@H](CC(C)C)NC(=O)[C@@H]4CS[C@@H](C)[C@@H](NC(=O)[C@@H]5CSC[C@@H](NC(=O)/C(=C/C)NC(=O)[C@@H](N)[C@@H](C)CC)C(=O)N[C@@H]([C@@H](C)CC)C(=O)NC(=C)C(=O)N[C@@H](CC(C)C)C(=O)N5)C(=O)N5CCC[C@H]5C(=O)NCC(=O)N4)C(=O)NCC(=O)N[C@@H](C)C(=O)N[C@@H](CC(C)C)C(=O)N[C@@H](CCSC)C(=O)NCC(=O)N3)[C@H](C)SC[C@H](NC2=O)C(=O)N[C@@H](Cc2c[nH]cn2)C(=O)N1)[C@@H](C)CC)C(C)C)C(=O)N[C@@H](CCCCN)C(=O)O [K12L]	81	10 % of wt	130 µg/mL (≈ 38.9 µM)	–
C=C(NC(=O)[C@@H](NC(=O)[C@H](Cc1c[nH]cn1)NC(=O)[C@@H](NC(=O)[C@H](CO)NC(=O)[C@@H]1CS[C@@H](C)[C@H]2NC(=O)[C@H](C)NC(=O)[C@H](NC(=O)[C@H](CCCCN)NC(=O)[C@H](CCSC)NC(=O)[C@H](CC(N)=O)NC(=O)[C@@H]3CS[C@@H](C)[C@@H](NC(=O)[C@H](CCCCN)NC(=O)[C@@H]4CS[C@@H](C)[C@@H](NC(=O)[C@@H]5CSC[C@@H](NC(=O)/C(=C/C)NC(=O)[C@@H](N)[C@@H](C)CC)C(=O)N[C@@H]([C@@H](C)CC)C(=O)N[C@@H](C)C(=O)N[C@@H](CC(C)C)C(=O)N5)C(=O)N5CCC[C@H]5C(=O)NCC(=O)N4)C(=O)NCC(=O)N[C@@H](C)C(=O)N[C@@H](CC(C)C)C(=O)N[C@@H](CCSC)C(=O)NCC(=O)N3)[C@H](C)SC[C@H](NC2=O)C(=O)N[C@@H](Cc2c[nH]cn2)C(=O)N1)[C@@H](C)CC)C(C)C)C(=O)N[C@@H](CCCCN)C(=O)O [nisin A (Dha5A)]	114	100 % of wt	250 µg/mL (≈ 74.5 µM)	antimicrobial activity against sensitive indicator strains [3]: retained their antimicrobial activity; Induction (FI7847 [nisA-(fs)]; inducing agent at 1 mg ml^−1): 107; nisin activity (% of wild type), gene replacement ([1]; plate diffusion bioassay): 100 % of wild type; nisin activity (% of wild type), complementation [4]: 25 % of wild type
C=C1NC(=O)[C@H]([C@@H](C)CC)NC(=O)[C@H](NC(=O)/C(=C/C)NC(=O)[C@@H](N)[C@@H](C)CC)CSC[C@@H](C(=O)N[C@H]2C(=O)N3CCC[C@H]3C(=O)NCC(=O)N[C@H](C(=O)N[C@@H](CCCCN)C(=O)N[C@H]3C(=O)NCC(=O)N[C@@H](C)C(=O)N[C@@H](CC(C)C)C(=O)N[C@@H](CCSC)C(=O)NCC(=O)N[C@H](C(=O)N[C@@H](CC(N)=O)C(=O)N[C@@H](CCSC)C(=O)N[C@@H](CCCCN)C(=O)N[C@H]4C(=O)N[C@@H](C)C(=O)N[C@H]5C(=O)N[C@@H](CS[C@H]4C)C(=O)N[C@@H](Cc4c[nH]cn4)C(=O)N[C@H](C(=O)N[C@@H](CO)C(=O)N[C@H](C(=O)N[C@@H](Cc4c[nH]cn4)C(=O)N[C@H](C(=O)N[C@@H](C)C(=O)N[C@@H](CCCCN)C(=O)O)C(C)C)[C@@H](C)CC)CS[C@H]5C)CS[C@H]3C)CS[C@H]2C)NC(=O)[C@H](CC(C)C)NC1=O [nisin A (Dha33A)]	17	150 % of wt	250 µg/mL (≈ 74.5 µM)	antimicrobial activity against sensitive indicator strains [3]: retained their antimicrobial activity; Induction (FI7847 [nisA-(fs)]; inducing agent at 1 mg ml^−1): 101; increase over nisin A levels ([1]; cell extract from FI8198, plate diffusion bioassay): approximately 50%; zone of inhibition / inhibitory effect compared with parent strain FI5876 ([1]; cell extracts of gene-replaced strains, plate diffusion bioassay): larger than that of the parent strain; nisin activity (% of wild type), gene replacement ([1]; plate diffusion bioassay): 150 % of wild type; nisin activity (% of wild type), complementation [4]: 10 % of wild type
H27K, H31K (MSTKDFNLDLVSVSKKDSGASPRITSISLCTPGCKTGALMGCNMKTATCKCSIKVSK; listed as Lactococcus sp.)	–	10 % of wt	–	–
H27W (MSTKDFNLDLVSVSKKDSGASPRITSISLCTPGCKTGALMGCNMKTATCWCSIHVSK; listed as Lactococcus sp.)	–	<1 % of wt	–	–
H31K (MSTKDFNLDLVSVSKKDSGASPRITSISLCTPGCKTGALMGCNMKTATCHCSIKVSK; listed as Lactococcus sp.)	–	25 % of wt	–	–
S5A, H27W (MSTKDFNLDLVSVSKKDSGASPRITSIALCTPGCKTGALMGCNMKTATCWCSIHVSK; listed as Lactococcus sp.)	–	10 % of wt	–	–
ΔM21: variant nisin from nisA M21 deletion (SEQ. ID. No. 41), produced by strain FI8290 (MSTKDFNLDLVSVSKKDSGASPRITSISLCTPGCKTGALMGCNKTATCHCSIHVSK; listed as Lactococcus sp.)	–	<1 % of wt	–	–

— US6448034B1, “Production of variant nisin” (priority 1994, dated 2002)
